Data taken from BindingDB's records for doi:10.1021/jm0604777 (University of Bristol, 2006).

Assays:
[1] = molecular target: Delta-type opioid receptor (Homo sapiens, UniProt P41143); experiment: Displacement of [3H]Cl-DPDPE from human recombinant DOR expressed in CHO cells
[2] = Binding affinity to DOR in guinea pig brain membrane

Chain of Delta-type opioid receptor (P41143 whole entry): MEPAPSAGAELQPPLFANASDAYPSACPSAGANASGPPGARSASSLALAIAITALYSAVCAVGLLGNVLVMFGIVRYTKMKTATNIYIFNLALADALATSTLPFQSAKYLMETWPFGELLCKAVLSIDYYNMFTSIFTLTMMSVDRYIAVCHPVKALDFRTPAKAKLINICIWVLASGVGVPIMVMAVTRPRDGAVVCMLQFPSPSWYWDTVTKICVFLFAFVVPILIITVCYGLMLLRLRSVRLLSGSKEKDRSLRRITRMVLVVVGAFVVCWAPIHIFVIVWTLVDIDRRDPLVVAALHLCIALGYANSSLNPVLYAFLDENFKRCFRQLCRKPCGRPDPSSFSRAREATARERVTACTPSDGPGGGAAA

Cc1ccc(CCC(=O)N[C@@]23CCC(=O)[C@@H]4Oc5c(O)ccc6c5[C@@]42CCN(C)C3C6)cc1 [N-[(1R,13R,17S)-10-hydroxy-4-methyl-14-oxo-12-oxa-4-azapentacyclo[9.6.1.0^{1,13}.0^{5,17}.0^{7,18}]octadeca-7(18),8,10-trien-17-yl]-3-(4-methylphenyl)propanamide]
Ki [1]: 1.3 nM

COc1ccc2c3c1O[C@H]1C(=O)CC[C@@]4(NC(=O)/C=C/c5ccccc5Cl)C(C2)N(CC2CC2)CC[C@]314 [N-cyclopropylmethyl-14beta-(2'-chlorocinnamoylamino)-7,8-dihydronorcodeinone]
Ki [2]: 7.2 nM

COc1ccc2c3c1O[C@H]1C(=O)CC[C@@]4(NC(=O)/C=C/c5ccccc5C)C(C2)N(CC2CC2)CC[C@]314 [N-cyclopropylmethyl-14beta-(2'-methylcinnamoylamino)-7,8-dihydronorcodeinone]
Ki [2]: 2.3 nM

Cc1ccccc1/C=C/C(=O)N[C@@]12CCC(=O)[C@@H]3Oc4c(O)ccc5c4[C@@]31CCN(CC1CC1)C2C5 [N-cyclopropylmethyl-14beta-(2'-methylcinnamoylamino)-7,8-dihydronormorphinone]
Ki [1]: 1.3 nM
